Read-outs that look alike come from different tables or passages of the source. Starred links: 1 amine or outer side, 2 acyl side, 3 side chain; linkers in the order of their positions; H or OH if unused. *: point of attachment. code Z = not defined here; MeOSuc = COC(=O)CCC(=O)*; CH2 = C([*:1])[*:2]; CH2Cl = ClC*
Key:
[1] = system: poliovirus; conditions: cited from earlier work
[2] = system: echovirus-12; conditions: Korant 1972; cited from earlier work
[3] = biological target: chymotrypsin (Bos taurus, UniProt P00766); conditions: inhibitor concentration 600 μg/mL; Ito et al. 1972; cited from earlier work
[4] = system: human poliomyelitisvirus type 2; format: cell-based, poliovirus type 2; parameters: key to Comparative Experiments Involving Other Peptide Halomethyl Ketones: Activity: -: no activity; +/-: low activity; +: active at 100 μg/mL; ++: active at 50 μg/mL; +++: active at 10 μg/mL; ++++: active at <5 μg/mL
[5] = system: poliovirus type 2; format: cell-based
[6] = system: human rhinovirus type 1A; format: cell-based
[7] = system: human rhinovirus type 1A; experiment: Plaque inhibition assay, rhinovirus; format: cell-based
[8] = system: human HeLa-O cells

Cc1ccc(S(=O)(=O)NC(CCCCN)C(=O)CCl)cc1 (stereo not drawn) [TLCK, tolylsulfonyllysyl chloromethyl ketone]
inhibition of poliovirus protein processing / protease cleavage of poliovirus-specific polypeptides [1]: inhibition
inhibition of echovirus-12 protein processing [2]: inhibition

Cc1ccc(S(=O)(=O)N[C@@H](Cc2ccccc2)C(=O)CCl)cc1 [TPCK, tolylsulfonylphenylalanyl chloromethyl ketone]
inhibition of poliovirus protein processing / protease cleavage of poliovirus-specific polypeptides [1]: inhibition
inhibition of echovirus-12 protein processing [2]: inhibition

Ac-Leu-Leu-PheCH3
inhibition of chymotrypsin [3]: no inhibition was observed

MeOSuc-Phe-Gly-Leu-LeuCH3 (MeOSuc-FGLL-CH2; SMILES COC(=O)CCC(=O)N[C@@H](Cc1ccccc1)C(=O)NCC(=O)N[C@@H](CC(C)C)C(=O)N[C@@H](CC(C)C)C(C)=O)
activity in the viral cleavage assay ([4]; 50 μg/mL): active

Z-- Phe--Gly--Pro--LeuCH2 Cl ({code Z}-FGPL-CH2Cl; reading uncertain; also: printed as Z-- Phe--Gly--Pro--LeuCH2 Cl)
Protease-Inhibiting Activity of Selected Peptide Halomethyl Ketones: Activity [4]: ++ (key: -: no activity; +/-: low activity; +: active at 100 μg/mL; ++: active at 50 μg/mL; +++: active at 10 μg/mL; ++++: active at <5 μg/mL)

Z--Ala--Gly--Ala--LeuCH2 Cl ({code Z}-AGAL-CH2Cl; reading uncertain; also: printed as Z--Ala--Gly--Ala--LeuCH2 Cl)
Comparative Experiments Involving Other Peptide Halomethyl Ketones: Activity [4]: +/-

Z--Gln--Gly--Ala--LeuCH2 Cl ({code Z}-QGAL-CH2Cl; reading uncertain; also: printed as Z--Gln--Gly--Ala--LeuCH2 Cl)
Comparative Experiments Involving Other Peptide Halomethyl Ketones: Activity [4]: + (key: -: no activity; +/-: low activity; +: active at 100 μg/mL; ++: active at 50 μg/mL; +++: active at 10 μg/mL; ++++: active at <5 μg/mL)

Z--Leu--Gly--Ala--LeuCH2 Cl ({code Z}-LGAL-CH2Cl; reading uncertain; also: printed as Z--Leu--Gly--Ala--LeuCH2 Cl)
Protease-Inhibiting Activity of Selected Peptide Halomethyl Ketones: Activity [4]: +++ (key: -: no activity; +/-: low activity; +: active at 100 μg/mL; ++: active at 50 μg/mL; +++: active at 10 μg/mL; ++++: active at <5 μg/mL)

Z--Phe--Gly--Gly--LeuCH2 Cl ({code Z}-FGGL-CH2Cl; reading uncertain; also: printed as Z--Phe--Gly--Gly--LeuCH2 Cl)
Protease-Inhibiting Activity of Selected Peptide Halomethyl Ketones: Activity [4]: +++ (key: -: no activity; +/-: low activity; +: active at 100 μg/mL; ++: active at 50 μg/mL; +++: active at 10 μg/mL; ++++: active at <5 μg/mL)

Z--Phe--Gly--Lys--LeuCH2 Cl ({code Z}-FGKL-CH2Cl; reading uncertain; also: printed as Z--Phe--Gly--Lys--LeuCH2 Cl)
Comparative Experiments Involving Other Peptide Halomethyl Ketones: Activity [4]: + (key: -: no activity; +/-: low activity; +: active at 100 μg/mL; ++: active at 50 μg/mL; +++: active at 10 μg/mL; ++++: active at <5 μg/mL)

Z--Phe--Gly--Phe--LeuCH2 Cl ({code Z}-FGFL-CH2Cl; reading uncertain; also: printed as Z--Phe--Gly--Phe--LeuCH2 Cl)
Protease-Inhibiting Activity of Selected Peptide Halomethyl Ketones: Activity [4]: ++ (key: -: no activity; +/-: low activity; +: active at 100 μg/mL; ++: active at 50 μg/mL; +++: active at 10 μg/mL; ++++: active at <5 μg/mL)

Z--Phe--Leu--Ala--LeuCH2 Cl ({code Z}-FLAL-CH2Cl; reading uncertain; also: printed as Z--Phe--Leu--Ala--LeuCH2 Cl)
Protease-Inhibiting Activity of Selected Peptide Halomethyl Ketones: Activity [4]: ++ (key: -: no activity; +/-: low activity; +: active at 100 μg/mL; ++: active at 50 μg/mL; +++: active at 10 μg/mL; ++++: active at <5 μg/mL)

Z--Phe--Lys--Ala--LeuCH2 Cl ({code Z}-FKAL-CH2Cl; reading uncertain; also: printed as Z--Phe--Lys--Ala--LeuCH2 Cl)
Comparative Experiments Involving Other Peptide Halomethyl Ketones: Activity [4]: + (key: -: no activity; +/-: low activity; +: active at 100 μg/mL; ++: active at 50 μg/mL; +++: active at 10 μg/mL; ++++: active at <5 μg/mL)

Z--Phe--Phe--Ala--LeuCH2 Cl ({code Z}-FFAL-CH2Cl; reading uncertain; also: printed as Z--Phe--Phe--Ala--LeuCH2 Cl)
Comparative Experiments Involving Other Peptide Halomethyl Ketones: Activity [4]: +/-

Z--Phe--Pro--Ala--LeuCH2 Cl ({code Z}-FPAL-CH2Cl; reading uncertain; also: printed as Z--Phe--Pro--Ala--LeuCH2 Cl)
Comparative Experiments Involving Other Peptide Halomethyl Ketones: Activity [4]: + (key: -: no activity; +/-: low activity; +: active at 100 μg/mL; ++: active at 50 μg/mL; +++: active at 10 μg/mL; ++++: active at <5 μg/mL)

Z-Phe-Gly-Ala-LeuCH2 Br ({code Z}-FGAL-CH2Br; reading uncertain; also: printed as Z-Phe-Gly-Ala-LeuCH2 Br) [Z--Phe--Gly--Ala--LeuCH2 Br]
Protease-Inhibiting Activity of Selected Peptide Halomethyl Ketones: Activity [4]: +++ (key: -: no activity; +/-: low activity; +: active at 100 μg/mL; ++: active at 50 μg/mL; +++: active at 10 μg/mL; ++++: active at <5 μg/mL)

Z-Phe-Gly-Ala-LeuCH2 Cl ({code Z}-FGAL-CH2Cl; reading uncertain; also: printed as Z-Phe-Gly-Ala-LeuCH2 Cl) [Z--Phe--Gly--Ala--LeuCH2 Cl]
Protease-Inhibiting Activity of Selected Peptide Halomethyl Ketones: Activity [4]: +++ (key: -: no activity; +/-: low activity; +: active at 100 μg/mL; ++: active at 50 μg/mL; +++: active at 10 μg/mL; ++++: active at <5 μg/mL)

Z-Phe-Gly-Ala-LeuCH3 ({code Z}-FGAL-CH2; reading uncertain; also: printed as Z-Phe-Gly-Ala-LeuCH3)
activity in the viral cleavage assay ([4]; 50 μg/mL): active
activity in the viral cleavage assay ([4]; test concentration 100 μg/mL): demonstrated activity
plaque reduction [5]: > 90%
activity in the viral cleavage assay ([6]; test concentration 100 μg/mL): demonstrated activity
plaque reduction ([7]; 50 μg/mL in agar overlay, compared to control plates): > 90%

Z-Phe-Gly-Ala-TyrCH2 Cl ({code Z}-FGAY-CH2Cl; reading uncertain; also: printed as Z-Phe-Gly-Ala-TyrCH2 Cl) [Z--Phe--Gly--Ala--TyrCH2 Cl]
Protease-Inhibiting Activity of Selected Peptide Halomethyl Ketones: Activity [4]: ++ (key: -: no activity; +/-: low activity; +: active at 100 μg/mL; ++: active at 50 μg/mL; +++: active at 10 μg/mL; ++++: active at <5 μg/mL)

Z-Phe-Gly-Ala-ValCH2 Cl ({code Z}-FGAV-CH2Cl; reading uncertain; also: printed as Z-Phe-Gly-Ala-ValCH2 Cl) [Z--Phe--Gly--Ala--ValCH2 Cl]
Protease-Inhibiting Activity of Selected Peptide Halomethyl Ketones: Activity [4]: ++ (key: -: no activity; +/-: low activity; +: active at 100 μg/mL; ++: active at 50 μg/mL; +++: active at 10 μg/mL; ++++: active at <5 μg/mL)

Z-Phe-Gly-Leu-LeuCH2 Cl ({code Z}-FGLL-CH2Cl; reading uncertain; also: printed as Z-Phe-Gly-Leu-LeuCH2 Cl) [Z--Phe--Gly--Leu--LeuCH2 Cl]
Protease-Inhibiting Activity of Selected Peptide Halomethyl Ketones: Activity [4]: ++++ (key: -: no activity; +/-: low activity; +: active at 100 μg/mL; ++: active at 50 μg/mL; +++: active at 10 μg/mL; ++++: active at <5 μg/mL)
concentration at which cytotoxicity was first detected [8]: about 15 μg/mL
Antiviral activity, as scored by 90% plaque reduction, noted at concentration ([7]; HeLa cells, agar overlay): 1 µg/mL

Z-Phe-Gly-Leu-LeuCH3 [Z--Phe--Gly--Leu--LeuCH3]
activity in the viral cleavage assay [4]: demonstrated activity
activity in the viral cleavage assay [6]: demonstrated activity

Z-Phe-Gly-Ser-LeuCH2 Cl ({code Z}-FGSL-CH2Cl; reading uncertain; also: printed as Z-Phe-Gly-Ser-LeuCH2 Cl) [Z--Phe--Gly--Ser--LeuCH2 Cl]
Protease-Inhibiting Activity of Selected Peptide Halomethyl Ketones: Activity [4]: ++ (key: -: no activity; +/-: low activity; +: active at 100 μg/mL; ++: active at 50 μg/mL; +++: active at 10 μg/mL; ++++: active at <5 μg/mL)

Z-Phe-Ser-Ala-LeuCH2 Cl ({code Z}-FSAL-CH2Cl; reading uncertain; also: printed as Z-Phe-Ser-Ala-LeuCH2 Cl) [Z--Phe--Ser--Ala--LeuCH2 Cl]
Comparative Experiments Involving Other Peptide Halomethyl Ketones: Activity [4]: + (key: -: no activity; +/-: low activity; +: active at 100 μg/mL; ++: active at 50 μg/mL; +++: active at 10 μg/mL; ++++: active at <5 μg/mL)

Reference: patent US4644055A, “Method for preparing specific inhibitors of virus-specified proteases” (priority 1984, dated 1987)
